Measured values reported in US20170007610A1, “NOVEL HETEROBICYCLIC COMPOUNDS AS KAPPA OPIOID AGONISTS” (priority 2014, published 2017).

How the values were obtained:
kappa opioid receptor [1] = molecular target: T1, kappa opioid receptor (Mus musculus, UniProt P33534); experiment: Ex-vivo KOR agonistic activity, electrically stimulated mouse vas deferens (MVD) model
T1 construct: from tissue; host or cells: mouse vas deferens (male Swiss Albino mice)
Protocol: a) Ex-Vivo KOR Agonistic Activity Testing, Using Electrically Stimulated Mouse Vas Deferens (MVD) Model:
Ex-vivo, the kappa opioid receptor agonistic activity of test compounds were tested on the electrically stimulated mouse vas deferens (MVD) preparations (Henderson et al., Br. J. Pharmacol., 46, 764-766, 1972; Portoghese et al., Life Sci. 36, 801-805, 1985) and IC50 were determined. In general, vas deferentia were taken from male Swiss Albino mice (30-40 g) and suspended in 8 ml organ baths, at 31° C., containing modified Krebs-Henseleit solution, without magnesium sulphate. Each vas deferens was equilibrated for 45 min at 2.6 mN tension and then stimulated at supramaximal voltage with five 1 ms pulses, at a frequency of 0.1 Hz. Concentration-response curves were determined by cumulative dosing. Inhibitory Concentration, 50% (IC50) values were determined by Sigmoidal dose-response (variable slope) equation, using Prizm v 6.01. The kappa opioid receptor specificity was determined by rightward shift in concentration-response curves in presence of 1 nM norbinaltorphimine (norBNI), a selective kappa opioid receptor antagonist.

ICR mice [2] = experiment: Assessment of CNS effects (spontaneous locomotion, sedation, catalepsy), threshold dose; type: in vivo; conditions: lowest dose which shows pharmacodynamic effect (locomotion, sedation, catalepsy), oral or i.v.
Protocol: (§1) All the animal experiments were carried out in ICR mice, bred in-house. Animals were housed in groups of 6 animals per cage, for a week, in order to habituate them to vivarium conditions (25±4° C., 60-65% relative humidity, 12:12 h light: dark cycle, with lights on at 7.30 am). All the animal experiments were carried out according to the internationally valid guidelines following approval by the ‘Zydus Research Center animal ethical committee’.
Assessment of CNS Effects of Test Compounds
Test compounds were dissolved in normal saline injected by oral or i.v., routes in ICR mice tail vein. […] The dose is scaled down or up if pharmacodynamic effect is present or absent respectively.

kappa opioid receptor [3] = molecular target: T2, kappa opioid receptor (Homo sapiens, UniProt P41145); experiment: Invitro KOR agonistic activity, cAMP based functional assay; type: cell-based
T2 construct: grown in complete Ham's F-12 medium

ICR mice [4] = experiment: Acetic acid-induced writhing model; type: in vivo; conditions: Mus musculus, 0.25 h, acetic acid induced pain model, oral or i.v. administration, writhes for 15 min, read-out: In-vivo ED50
Protocol: as §1
Following oral or i.v. administration of test compounds, mice are rested for 5 min before i.p. injection with 10 ml/kg of 0.6% v/v acetic acid in normal saline. […] A writhe is defined as a constriction of the abdominal area, often with extension of the hind legs. Percentage maximum possible effect (MPE) was calculated as below:
% MPE=100−[(No. of writhes in treated mice/No. of writhes in vehicle treated mice)]×100
ED50 dose is determined using GraphPad Prism.

T2 sequence (P41145 whole entry): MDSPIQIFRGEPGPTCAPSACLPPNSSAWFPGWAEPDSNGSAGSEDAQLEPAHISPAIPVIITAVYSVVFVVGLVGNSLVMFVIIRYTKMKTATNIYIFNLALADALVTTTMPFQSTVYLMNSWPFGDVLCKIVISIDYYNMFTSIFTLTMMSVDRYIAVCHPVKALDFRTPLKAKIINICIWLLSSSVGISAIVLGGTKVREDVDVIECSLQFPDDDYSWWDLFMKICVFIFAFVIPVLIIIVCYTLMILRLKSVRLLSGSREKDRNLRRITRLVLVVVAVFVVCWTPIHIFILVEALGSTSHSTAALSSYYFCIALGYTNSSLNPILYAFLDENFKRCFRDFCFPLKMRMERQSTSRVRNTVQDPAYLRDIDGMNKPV
T1 sequence (P33534 whole entry): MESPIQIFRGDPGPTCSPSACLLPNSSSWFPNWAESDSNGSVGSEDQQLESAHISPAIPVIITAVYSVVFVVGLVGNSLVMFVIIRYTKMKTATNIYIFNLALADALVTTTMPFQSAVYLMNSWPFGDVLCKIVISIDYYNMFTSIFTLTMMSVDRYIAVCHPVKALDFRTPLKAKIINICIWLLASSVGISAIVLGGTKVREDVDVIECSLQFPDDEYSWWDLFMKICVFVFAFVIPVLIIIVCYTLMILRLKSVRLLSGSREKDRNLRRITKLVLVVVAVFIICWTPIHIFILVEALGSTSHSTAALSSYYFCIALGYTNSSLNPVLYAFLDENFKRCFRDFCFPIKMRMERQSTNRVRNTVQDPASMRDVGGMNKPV

| Compound | IC50 (kappa opioid receptor [1]) | CNS TD (ICR mice [2]) | EC50 (kappa opioid receptor [3]) | ED50 (ICR mice [4]) |
| --- | --- | --- | --- | --- |
| CN(C(=O)COc1ccc(NS(=O)(=O)N(C)C)c2c1CCCN2)[C@H](CN1CC[C@H](O)C1)c1ccccc1 [Compound 32, 2-((8-((N,N-dimethylsulfamoyl)amino)-1,2,3,4-tetrahydroquinolin-5-yl)oxy)-N-((S)-2-((S)-3-hydroxypyrrolidin-1-yl)-1-phenylethyl)-N-methylacetamide] | 490 pM | 100 mg/kg | 13 pM | 4.7 mg/kg |
| CN(C(=O)COc1ccc(NS(C)(=O)=O)c2ncccc12)[C@H](CN1CC[C@H](O)C1)c1cccc(N)c1 [Compound 43, N-((S)-1-(3-aminophenyl)-2-((S)-3-hydroxypyrrolidin-1-yl)ethyl)-N-methyl-2-((8-(methylsulfonamido)quinolin-5-yl)oxy) acetamide] | 1600 pM | 30 mg/kg | 6 pM | 2.1 mg/kg |
| CN(C(=O)COc1ccc(NS(C)(=O)=O)c2ncccc12)[C@H](CN1CC[C@H](O)C1)c1cccc(NS(C)(=O)=O)c1 [Compound 44] | 5400 pM | 10 mg/kg | 36 pM | 2.3 mg/kg |
| CN(C(=O)COc1ccc(NS(C)(=O)=O)c2ncccc12)[C@H](CN1CC[C@H](O)C1)c1cccc(O)c1 [Compound 48, N-((S)-1-(3-hydroxyphenyl)-2-((S)-3-hydroxypyrrolidin-1-yl)ethyl)-N-methyl-2-((8-(methylsulfonamido)quinolin-5-yl)oxy) acetamide] | 1300 pM | 30 mg/kg | 21 pM | 3.1 mg/kg |
| CN(C(=O)COc1ccc2c(c1)OCO2)[C@H](CN1CC[C@H](O)C1)c1cccc(NS(C)(=O)=O)c1 [Compound 57, 2-(benzo[d][1,3]dioxol-5-yloxy)-N-((S)-2-((S)-3-hydroxypyrrolidin-1-yl)-1-(3-(methylsulfonamido)phenyl)ethyl)-N-methylacetamide] | 27000 pM | 60 mg/kg | 961 pM | 1.9 mg/kg |
